# Assay results: paper PMC2990756, “Quantitative High-Throughput Screening Identifies 8-Hydroxyquinolines as Cell-Active Histone Demethylase Inhibitors” (PLoS ONE, 2010)
# Key:
# JMJD2E = target: T1, JMJD2E (Homo sapiens, UniProt B2RXH2); assay: MALDI-TOF MS demethylation assay, JMJD2E
# T1 sequence (B2RXH2 1-337): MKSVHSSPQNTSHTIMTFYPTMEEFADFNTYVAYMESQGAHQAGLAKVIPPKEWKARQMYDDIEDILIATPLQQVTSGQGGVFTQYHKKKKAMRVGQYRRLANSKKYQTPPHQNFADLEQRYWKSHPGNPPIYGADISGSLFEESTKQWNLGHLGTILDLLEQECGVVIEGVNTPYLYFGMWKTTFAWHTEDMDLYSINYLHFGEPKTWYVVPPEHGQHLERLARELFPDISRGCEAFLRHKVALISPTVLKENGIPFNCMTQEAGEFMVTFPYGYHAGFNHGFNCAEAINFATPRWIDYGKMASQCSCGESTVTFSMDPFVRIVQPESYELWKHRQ
# Experimental: Initially, JMJD2, Fe(II), ascorbate and inhibitors were pre-incubated for 15 min prior to the addition of peptide and 2OG. The reaction was incubated for 30 min before 1∶1 quenching with methanol followed by addition of four volumes of 20 mM triammonium citrate. […] The diluted assay mixture (1 µL) from JMJD2 and PHD2 assays were mixed with 1 µL of α-cyano-4-hydroxycinnamic acid and 1 µL of FIH assay mixture was mixed with 1 µL of sinapinic acid matrix, and assessed by matrix-assisted laser desorption/ionization-time of flight (MALDI-TOF).
# JMJD2A = target: T2, JMJD2A (Homo sapiens, UniProt O75164); assay: MALDI-TOF MS demethylation assay, JMJD2A
# T2 sequence (O75164 1-359 limits assumed): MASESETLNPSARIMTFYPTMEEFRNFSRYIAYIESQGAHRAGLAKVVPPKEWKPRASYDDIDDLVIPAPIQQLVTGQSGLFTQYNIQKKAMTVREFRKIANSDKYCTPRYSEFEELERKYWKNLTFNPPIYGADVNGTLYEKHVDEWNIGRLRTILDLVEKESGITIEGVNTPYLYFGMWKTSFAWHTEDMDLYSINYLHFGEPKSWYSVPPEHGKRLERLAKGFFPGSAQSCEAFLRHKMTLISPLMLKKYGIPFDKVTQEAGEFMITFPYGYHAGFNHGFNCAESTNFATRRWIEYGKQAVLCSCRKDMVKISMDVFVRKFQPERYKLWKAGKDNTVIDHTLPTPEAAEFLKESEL
# Experimental: (§1) JMJD2 assays were carried out as reported [13]. […] Initially, JMJD2, Fe(II), ascorbate and inhibitors were pre-incubated for 15 min prior to the addition of peptide and 2OG. The reaction was incubated for 30 min before 1∶1 quenching with methanol followed by addition of four volumes of 20 mM triammonium citrate. PHD2 and FIH assays were carried out as described [41], [42] with minor modifications. PHD2 assay consisted of PHD2 (1 µM), FAS (10 µM), SA (100 µM), 2OG (60 µM) and HIF-1α^556–574CODD peptide (50 µM), in 50 mM HEPES (pH 7.5) with varying concentrations of inhibitors (final DMSO concentration was 5%). Initially, PHD2, Fe(II), ascorbate and inhibitors were pre-incubated for 15 min prior to the addition of peptide and 2OG. The reaction was incubated for 30 min before 1∶1 quenching with 1% TFA followed by addition of three volumes of 20 mM triammonium citrate. FIH assay consisted of FIH (1 µM), FAS (10 µM), SA (100 µM), 2OG (100 µM) and HIF-1α^786–826CAD peptide (100 µM), in 50 mM HEPES (pH 7.5) with varying concentrations of inhibitors (final DMSO concentration was 5%). […] The diluted assay mixture (1 µL) from JMJD2 and PHD2 assays were mixed with 1 µL of α-cyano-4-hydroxycinnamic acid and 1 µL of FIH assay mixture was mixed with 1 µL of sinapinic acid matrix, and assessed by matrix-assisted laser desorption/ionization-time of flight (MALDI-TOF).
# JMJD2E (KDM4E) = target: T3, JMJD2E (KDM4E) (Homo sapiens, UniProt B2RXH2); assay: qHTS fluorescence FDH-coupled JMJD2E demethylase assay; type: biochemical; conditions: Figure 3; substituted 8-hydroxyquinolines against JMJD2E; read-out: IC50 /μM (qHTS IC50, FDH-coupled assay)
# T3 construct: The catalytic domain of human JMJD2E (residues 1–337); His6 (N); made in house; host or cells: E. coli
# T3 sequence (B2RXH2 1-337): T1 sequence (B2RXH2 1-337)
# FIH = FIH (Homo sapiens, UniProt Q9NWT6); assay: MALDI-TOF MS peptide hydroxylation assay, FIH
# Sequence of FIH (Q9NWT6 whole entry, the tested form may be a part): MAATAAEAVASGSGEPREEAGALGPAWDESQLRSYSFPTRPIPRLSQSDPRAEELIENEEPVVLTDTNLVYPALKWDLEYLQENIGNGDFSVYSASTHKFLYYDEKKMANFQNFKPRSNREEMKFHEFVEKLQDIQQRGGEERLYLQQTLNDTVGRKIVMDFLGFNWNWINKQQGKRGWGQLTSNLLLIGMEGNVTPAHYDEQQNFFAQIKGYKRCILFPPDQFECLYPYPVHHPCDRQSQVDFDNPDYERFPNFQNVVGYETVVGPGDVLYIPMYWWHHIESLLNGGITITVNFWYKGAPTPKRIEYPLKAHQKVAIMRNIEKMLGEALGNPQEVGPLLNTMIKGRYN
# Experimental: as §1
# PHD2 (catalytic domain) = PHD2 (catalytic domain) (Homo sapiens, UniProt Q9GZT9); assay: MALDI-TOF MS peptide hydroxylation assay, PHD2
# Sequence of PHD2 (catalytic domain) (Q9GZT9 181-426 limits assumed): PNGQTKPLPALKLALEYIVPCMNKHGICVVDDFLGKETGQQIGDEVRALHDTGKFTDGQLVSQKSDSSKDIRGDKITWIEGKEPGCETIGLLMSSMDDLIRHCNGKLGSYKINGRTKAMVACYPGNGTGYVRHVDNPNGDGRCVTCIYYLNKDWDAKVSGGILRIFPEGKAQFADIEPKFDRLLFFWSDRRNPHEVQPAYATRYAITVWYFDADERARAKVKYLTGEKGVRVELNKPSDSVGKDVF
# Experimental: as §1
smiles,measurement,setting,value
Oc1ccc(CNc2ccccc2F)c2cccnc12 [SID 852641],IC50,JMJD2E,6 µM
same,IC50,JMJD2A,8.2 µM
same,IC50,JMJD2E (KDM4E),1.1 µM
same,IC50,FIH,19.6 µM
same,IC50,PHD2 (catalytic domain),14.4 µM
